biological target: T1, human TLR8 (Homo sapiens, UniProt Q9NR97); assay: HEK293-Blue-hTLR-8 cells assay (SEAP reporter, R848 stimulation); format: cell-based; conditions: HEK293-Blue-hTLR8 cells, R848, 20 hrs; read-out: HEK/hTLR8 IC50
T1 construct: host or cells: HEK293 (HEK-Blue)
T1 sequence (Q9NR97 27-1041): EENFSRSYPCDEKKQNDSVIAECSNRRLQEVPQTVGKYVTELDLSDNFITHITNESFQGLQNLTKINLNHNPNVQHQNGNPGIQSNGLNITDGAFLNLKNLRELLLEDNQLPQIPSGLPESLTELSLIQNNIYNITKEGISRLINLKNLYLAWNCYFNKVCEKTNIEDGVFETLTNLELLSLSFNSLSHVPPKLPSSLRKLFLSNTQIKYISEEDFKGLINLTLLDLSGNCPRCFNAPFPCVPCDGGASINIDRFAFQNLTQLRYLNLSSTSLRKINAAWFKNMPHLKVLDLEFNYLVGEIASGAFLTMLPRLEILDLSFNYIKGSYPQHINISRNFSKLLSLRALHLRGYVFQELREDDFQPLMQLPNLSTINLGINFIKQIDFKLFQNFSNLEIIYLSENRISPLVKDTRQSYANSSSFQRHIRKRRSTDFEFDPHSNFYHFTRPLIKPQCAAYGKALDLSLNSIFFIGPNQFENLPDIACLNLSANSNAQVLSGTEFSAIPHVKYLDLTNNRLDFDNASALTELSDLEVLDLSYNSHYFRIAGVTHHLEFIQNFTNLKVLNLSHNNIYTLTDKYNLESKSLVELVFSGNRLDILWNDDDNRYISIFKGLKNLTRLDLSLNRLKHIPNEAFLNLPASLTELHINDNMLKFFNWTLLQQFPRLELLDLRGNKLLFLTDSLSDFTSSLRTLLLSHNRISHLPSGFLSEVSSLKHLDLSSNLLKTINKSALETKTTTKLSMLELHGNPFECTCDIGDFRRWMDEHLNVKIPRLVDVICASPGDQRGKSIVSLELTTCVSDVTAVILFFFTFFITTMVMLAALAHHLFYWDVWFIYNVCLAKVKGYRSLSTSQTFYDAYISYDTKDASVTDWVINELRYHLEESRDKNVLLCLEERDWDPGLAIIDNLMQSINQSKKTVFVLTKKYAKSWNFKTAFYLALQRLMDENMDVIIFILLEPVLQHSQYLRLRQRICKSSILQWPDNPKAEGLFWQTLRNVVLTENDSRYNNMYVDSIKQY
Outline: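 HEK293-Blue-hTLR8 cells (NF-κB/AP-1-driven SEAP) in DMEM/10% FBS were treated with serially diluted compound (1% DMSO final) plus R848 for 20 hrs at 37 °C. Supernatant SEAP was measured with QUANTI-Blue after 2 hrs at 37 °C, absorbance 620-655 nm; antagonism seen as reduced reporter.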

**Q.** With `C[C@@H]1CN(c2ccc(C#N)c3nccnc23)C[C@H](CN2CCN(c3cc4c(cn3)[C@@H](C)NCC4)CC2)O1` (single isomer, unassigned) [Example 86] as the molecule, how does the IC50 read?
**A.** Its IC50 is 2 nM.

**Q.** For `C[C@@H]1CN(c2ccc(C#N)c3nccnc23)C[C@H](CN2CCN(c3cc4c(cn3)CCN[C@@H]4C)CC2)O1` (single isomer, unassigned) [Example 87], which IC50 is on record?
**A.** Its IC50 is 2 nM.

**Q.** For `C[C@@H]1CN(c2ccc(C#N)c3nccnc23)C[C@H](CN2CCN(c3cc4c(cn3)CCN[C@H]4C)CC2)O1` (single isomer, unassigned) [Example 88], which IC50 is on record?
**A.** Its IC50 is 2 nM.

**Q.** How did the IC50 turn out when `[2H]c1nc2c(C#N)ccc(N3C[C@H](CN4CCN(c5cc6c(cn5)[C@H](C)NCC6)CC4)O[C@H](C)C3)c2nc1[2H]` (single isomer, unassigned) [Example 94] was run?
**A.** Its IC50 is 2 nM.

**Q.** For `[2H]c1nc2c(C#N)ccc(N3C[C@H](CN4CCN(c5cc6c(cn5)[C@@H](C)NCC6)CC4)O[C@H](C)C3)c2nc1[2H]` (single isomer, unassigned) [Example 95], which IC50 is on record?
**A.** The IC50 was 3 nM.

**Q.** `[2H]c1nc2c(C#N)ccc(N3C[C@H](CN4CCN(c5ccc6c(n5)CN[C@H]6C)CC4)O[C@H](C)C3)c2nc1[2H]` (single isomer, unassigned) [Example 96] was tested. Which IC50 did it give?
**A.** Its IC50 is 3 nM.

**Q.** For `[2H]c1nc2c(C#N)ccc(N3C[C@H](CN4CCN(c5ccc6c(n5)CN[C@@H]6C)CC4)O[C@H](C)C3)c2nc1[2H]` (single isomer, unassigned) [Example 97], which IC50 is on record?
**A.** The IC50 was 4 nM.

**Q.** With `[2H]c1ccc2c(N3C[C@H](CN4CCN(c5ccc6c(n5)CN[C@@H]6C)CC4)O[C@H](C)C3)ccc(C#N)c2n1` (single isomer, unassigned) [Example 98] as the molecule, how does the IC50 read?
**A.** The IC50 was 5 nM.

**Q.** With `[2H]c1ccc2c(N3C[C@H](CN4CCN(c5ccc6c(n5)CN[C@H]6C)CC4)O[C@H](C)C3)ccc(C#N)c2n1` (single isomer, unassigned) [Example 99] as the molecule, how does the IC50 read?
**A.** The IC50 was 5 nM.

**Q.** `C[C@@H]1CN(c2ccc(C#N)c3ncccc23)C[C@H](CN2CCN(c3ccc4c(c3)CNCC4)CC2)O1` [Example 9, 5-[(2R,6S)-2-methyl-6-[[4-(1,2,3,4-tetrahydroisoquinolin-7-yl)piperazin-1-yl]methyl]morpholin-4-yl]quinoline-8-carbonitrile] was tested. Which IC50 did it give?
**A.** The IC50 was 15 nM.

**Q.** With `C[C@@H]1CN(c2ccc(C#N)c3ncccc23)C[C@H](CN2CCN(c3cnc4c(c3)CNC4)CC2)O1` [Example 10, 5-[(2S,6R)-2-[[4-(6,7-dihydro-5H-pyrrolo[3,4-b]pyridin-3-yl)piperazin-1-yl]methyl]-6-methyl-morpholin-4-yl] quinoline-8-carbonitrile] as the molecule, how does the IC50 read?
**A.** Its IC50 is 23 nM.
